Assays:
Assay type in all cases: in vivo
[1] = tested on: Tobacco Budworm [Heliothis virescens (Fabricius)] eggs; assay: Tobacco budworm egg test; settings: 2-day old eggs, percent in solution
Method in brief: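 Mortality of dipped eggs served as read-out, recorded after untreated controls hatched and began feeding. Treatments used acetone solutions from 0.1% downward, with eggs incubated at 78° F; LC50 is expressed as percent of compound in the solution.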

[2] = tested on: Cabbage Looper [Trichoplusia ni (Hubner)]; assay: Cabbage looper insecticidal test; settings: second-instar larvae, percent in solution; 3-5 days
Method in brief: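 Steps: dilute compound in 50-50 acetone-water from 0.1% downward; immerse cotyledon pieces 2-3 s and dry; place in humid petri dishes with five second-instar larvae; record mortality at 3-5 days. Dosage-mortality curves yield LC50 as percent in solution.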

[3] = tested on: Rice water weevil [Lissorhoptrus oryzophilus (Kuschel)]; assay: Rice water weevil insecticidal test; settings: topical, μg per weevil; 48 hours
Procedure: The compounds in Tables 1 and 2 above were tested for insecticidal activity using the following testing procedures. LC50 values, based on the results of these tests and calculated according to dosage-mortality curves, are expressed in Table 3.
Rice water weevil [Lissorhoptrus oryzophilus (Kuschel)]:
Test compounds were diluted in acetone. Droplets (1 μl) of test solutions were applied to the ventral abdomens of ten female adult weevils. The treated weevils were placed in containers with wet cotton balls and rice foliage. The containers were covered and kept at a temperature of about 25° C. Mortality was recorded after 48 hours. Test concentrations ranged from […] or 2.5 μg per weevil down to that at which 50% mortality occurred. The LC50 values are expressed below in Table 3 under the heading "RWW" in terms of μg of test compound per weevil.

[4] = tested on: Housefly [Musca domestica]; assay: Housefly insecticidal test; settings: μg per 25 female flies; mortality after 48 hours
Method in brief: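 Residual contact test: acetone dilution, 0.01% peanut oil spreader, solvent evaporated; 25 ♀ flies (1-2 d old) per cage; sugar-water plug; 48 h mortality read. LC50 in μg/25 female flies, from dose-mortality curves; top dose 100 μg/25 flies.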

[5] = tested on: Maize weevil [Sitophilus Zeamais (Motschulsky)]; assay: Maize weevil insecticidal test; settings: adult weevils, percent in solution; 48 hours
Method in brief: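 LC50, in percent of compound in solution, was derived from dosage-mortality curves after 48 h at about 25 °C. Ten adult weevils per container fed on four corn seeds briefly immersed in acetone:water (50:50) solutions of up to 0.01% and dried.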

[6] = tested on: Tobacco Budworm [Heliothis virescens (Fabricius)] larvae; assay: Tobacco budworm contact test; settings: second-instar larvae, percent in solution, 5 days
Method in brief: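 Cotton cotyledons dipped 2–3 s in compound in 50-50 acetone-water, dried, then infested with 5 second-instar larvae and held 5 days at high humidity. Mortality scored; LC50 from dosage-mortality curves, expressed as percent compound in solution, concentrations from 0.1% downward.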

[7] = tested on: Aster Leafhopper [Macrosteles fascifrens (Stal)]; assay: Aster leafhopper insecticidal test; settings: adults/nymphs, percent in solution; 48 hours
Method in brief: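 Three ~10 cm oat seedlings per cup were dipped 2-3 seconds in 50-50 acetone-water compound solutions, dried, and caged with ten adult/nymph leafhoppers. Mortality was counted after 48 hours at concentrations from 0.05% downward. LC50, as percent compound in solution, came from dosage-mortality curves.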

[8] = tested on: Beet Armyworm (Spodoptera exigua); assay: Beet armyworm insecticidal test; settings: second-instar larvae, percent in solution; five days
Method in brief: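 Sugar beet leaves dipped 2–3 s in compound diluted in 50:50 acetone-water, dried, then infested with five second-instar larvae in humid petri dishes. Mortality scored at 5 days; concentrations from 0.1% downward. LC50 from dosage-mortality curves, expressed as percent compound in solution.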

SMILES	LC50, TBW, E (TBW-E) [1] [%]	LC50, CL [2] [%]	LC50, RWW [3] [µg]	LC50, HF [4] [µg]	LC50, MW [5] [%]	LC50, TBW, C (TBW-C) [6] [%]	LC50, LH [7] [%]	LC50, BAW [8] [%]
Fc1ccc(N=C(OCc2cccc(Oc3ccccc3)c2)C2CC2)cc1Cl [Compound 113]	0.1	0.005	> 2.5	15	–	–	–	–
CC(C)C(=Nc1ccc(F)c(Cl)c1)OCc1cc(Oc2ccc(F)cc2)ccc1F [Compound 230]	0.1	0.0004	> 2.5	36	0.038	–	–	–
CC(C)C(=Nc1ccc(F)c(Br)c1)OCc1cccc(Oc2ccccc2)c1 [Compound 254]	0.026	0.001	> 2.5	6	–	–	–	–
CC(C)C(=Nc1ccc(F)c(Cl)c1)OCc1cccc(Oc2ccc(F)cc2)c1F [Compound 262]	> 0.1	0.0004	> 2.5	26	0.005	–	–	–
CC(C)C(=Nc1cccc(I)c1)OCc1ccc(F)c(Oc2ccc(F)cc2)c1 [Compound 279]	0.016	0.00008	–	4	> 0.01	0.007	0.0003	0.0025
CC(C)(F)C(=Nc1ccc(F)c(Cl)c1)OCc1ccc(F)c(Oc2ccc(F)cc2)c1 [Compound 310]	0.015	0.00006	> 2.5	4.5	–	–	–	–
CC(C)C(=Nc1ccc(C(F)(F)F)cc1)OCc1ccc(F)c(Oc2ccc(F)cc2)c1 [Compound 314]	0.012	0.00005	0.11	21	–	–	–	–
CC(C)C(=Nc1ccc(F)c(Cl)c1)OCc1ccc(F)c(Oc2ccc(F)c(F)c2)c1 [Compound 346]	> 0.1	> 0.1	–	7.2	> 0.01	0.0002	0.05	> 0.1
CC(C)C(=Nc1ccc(OC(F)(F)F)cc1)OCc1ccc(F)c(Oc2ccc(F)c(F)c2)c1 [Compound 347]	> 0.1	0.000075	–	30	> 0.01	0.0001	0.0002	0.00075
CC(C)C(=Nc1ccc(F)c(F)c1F)OCc1cccc(Oc2ccc(F)cc2)c1 [Compound 348]	> 0.1	0.0002	–	8	> 0.01	0.00075	0.05	> 0.1
CCOc1ccc(N=C(OCc2ccc(F)c(Oc3ccc(Cl)cc3)c2)C(C)C)cc1Cl [Compound 369]	> 0.1	0.0016	> 2.5	> 100	> 0.01	–	–	–
CCOc1ccc(N=C(OCc2ccc(F)c(Oc3ccccc3)c2)C(C)C)cc1Cl [Compound 370]	0.02	0.00034	> 2.5	< 100	> 0.01	–	–	–
CC(C)C(=Nc1cccc(F)c1)OCc1ccc(F)c(Oc2ccc(Cl)cc2)c1 [Compound 375]	0.04	> 0.1	> 2.5	7.9	> 0.01	–	–	–
CC(C)C(=Nc1ccc(Cl)c(Cl)c1)OCc1ccc(F)c(Oc2ccccc2)c1 [Compound 376]	0.02	0.00037	0.1	17	0.0061	–	–	–
CC(C)C(=Nc1ccc(C(F)(F)F)c(Br)c1)OCc1ccc(F)c(Oc2ccc(Cl)cc2)c1 [Compound 377]	> 0.1	0.00062	> 2.5	< 100	> 0.01	–	–	–
CC(C)C(=Nc1ccc(Br)cc1)OCc1ccc(F)c(Oc2ccc(Cl)cc2)c1 [Compound 378]	0.02	0.00034	> 2.5	< 100	> 0.01	–	–	–
CC(C)C(=Nc1ccc(Br)c(Cl)c1)OCc1cccc(Oc2ccc(Cl)cc2)c1 [Compound 380]	> 0.1	> 0.1	> 2.5	> 100	> 0.01	–	–	–
CC(C)C(=Nc1ccc(Br)c(Cl)c1)OCc1ccc(F)c(Oc2ccc(Cl)cc2)c1 [Compound 381]	0.018	0.00092	> 2.5	< 100	> 0.01	–	–	–
CC(C)C(=Nc1ccc(Br)c(Cl)c1)OCc1ccc(F)c(Oc2ccc(F)cc2)c1 [Compound 382]	0.027	0.00029	> 2.5	< 100	> 0.01	–	–	–
CC(C)C(=Nc1cccc(Br)c1)OCc1ccc(F)c(Oc2ccccc2)c1 [Compound 387]	0.05	0.0012	> 2.5	< 100	> 0.01	–	–	–
CC(C)C(=Nc1ccc(Cl)cc1)OCc1ccc(F)c(Oc2ccc(Cl)cc2)c1 [Compound 391]	0.035	0.00029	> 2.5	< 100	> 0.01	–	–	–
